Results taken from ChEMBL document CHEMBL3885861, “Open TG-GATES”.

Species: Rattus norvegicus
Assay: Open TG-GATES - Regimen: Single
Format: toxicity, organism-based, Sprague-Dawley
Design: regimen Single, gender Male, age 6 weeks
Settings: in vivo, po, 0 mg/kg, route gavage, dose level Control; for APTT / Bas / Eos / Fbg / Hb / Ht / Lym / MCH / MCHC / MCV / Mono / Neu / PT / Plat / RBC / Ret / WBC: tissue Blood; for KIDNEY_L / KIDNEY_R / KIDNEY_TOTAL: tissue Kidney; for LIVER: tissue Liver; for ALP / ALT / AST / BUN / CRE / DBIL / GLC / K / LDH / Na / PL / RALB / TBIL / TC / TG / TP / gamma-GTP: tissue Plasma

**Q.** With `CC(CCc1ccccc1)NCC(O)c1ccc(O)c(C(N)=O)c1` (stereo not given) [LABETALOL] as the compound, how does the TERMINAL_BW (3 h) read?
**A.** 214.7 g

**Q.** And the APTT (3 h)?
**A.** 16 s

**Q.** What about the Bas (3 h) of the same compound?
**A.** 0%

**Q.** And the Eos (3 h)?
**A.** 1%

**Q.** And the Fbg (3 h)?
**A.** 279.6 mg/dL

**Q.** And the Hb (3 h)?
**A.** 13 g/dL

**Q.** And the Ht (3 h)?
**A.** 38.7%

**Q.** What about the Lym (3 h) of the same compound?
**A.** 80.6%

**Q.** What about the MCH (3 h) of the same compound?
**A.** 21.4 pg

**Q.** What about the MCHC (3 h) of the same compound?
**A.** 33.6%

**Q.** And the MCV (3 h)?
**A.** 63.6 fL

**Q.** And the Mono (3 h)?
**A.** 3.4%

**Q.** And the Neu (3 h)?
**A.** 14.2%

**Q.** And the PT (3 h)?
**A.** 13.1 s

**Q.** What about the Plat (3 h) of the same compound?
**A.** 108.8 x10_4/uL

**Q.** What about the RBC (3 h) of the same compound?
**A.** 608.8 x10_4/ul

**Q.** What about the Ret (3 h) of the same compound?
**A.** 8%

**Q.** And the WBC (3 h)?
**A.** 90.7 x10_2/uL

**Q.** What about the KIDNEY_L (3 h) of the same compound?
**A.** 0.9 g

**Q.** What about the KIDNEY_R (3 h) of the same compound?
**A.** 0.9 g

**Q.** And the KIDNEY_TOTAL (3 h)?
**A.** 1.8 g

**Q.** What about the LIVER (3 h) of the same compound?
**A.** 9.4 g

**Q.** And the ALP (3 h)?
**A.** 1611 IU/L

**Q.** And the ALT (3 h)?
**A.** 45.8 IU/L

**Q.** And the AST (3 h)?
**A.** 77.4 IU/L

**Q.** What about the BUN (3 h) of the same compound?
**A.** 11.8 mg/dL

**Q.** And the CRE (3 h)?
**A.** 0.2 mg/dL

**Q.** What about the DBIL (3 h) of the same compound?
**A.** 0.014 mg/dL

**Q.** And the GLC (3 h)?
**A.** 184 mg/dL

**Q.** And the K (3 h)?
**A.** 3.8 meq/L

**Q.** And the LDH (3 h)?
**A.** 70.6 IU/L

**Q.** And the Na (3 h)?
**A.** 142.6 meq/L

**Q.** And the PL (3 h)?
**A.** 141.8 mg/dL

**Q.** What about the RALB (3 h) of the same compound?
**A.** 2.6 g/dL

**Q.** What about the TBIL (3 h) of the same compound?
**A.** 0.048 mg/dL

**Q.** And the TC (3 h)?
**A.** 83 mg/dL

**Q.** And the TG (3 h)?
**A.** 68.4 mg/dL

**Q.** What about the TP (3 h) of the same compound?
**A.** 5.5 g/dL

**Q.** What about the gamma-GTP (3 h) of the same compound?
**A.** 1.6 IU/L

**Q.** What about the TERMINAL_BW (6 h) of the same compound?
**A.** 213.8 g

**Q.** What about the APTT (6 h) of the same compound?
**A.** 16.4 s

**Q.** And the Bas (6 h)?
**A.** 0%

**Q.** And the Eos (6 h)?
**A.** 1%

**Q.** And the Fbg (6 h)?
**A.** 327.6 mg/dL

**Q.** And the Hb (6 h)?
**A.** 13.3 g/dL

**Q.** What about the Ht (6 h) of the same compound?
**A.** 39%

**Q.** And the Lym (6 h)?
**A.** 72.8%

**Q.** And the MCH (6 h)?
**A.** 21.8 pg

**Q.** What about the MCHC (6 h) of the same compound?
**A.** 34%

**Q.** What about the MCV (6 h) of the same compound?
**A.** 63.9 fL

**Q.** And the Mono (6 h)?
**A.** 3.4%

**Q.** What about the Neu (6 h) of the same compound?
**A.** 22.2%

**Q.** What about the PT (6 h) of the same compound?
**A.** 12.9 s

**Q.** And the Plat (6 h)?
**A.** 104.3 x10_4/uL

**Q.** And the RBC (6 h)?
**A.** 609.8 x10_4/ul

**Q.** What about the Ret (6 h) of the same compound?
**A.** 8.3%

**Q.** What about the WBC (6 h) of the same compound?
**A.** 100.8 x10_2/uL

**Q.** And the KIDNEY_L (6 h)?
**A.** 0.9 g

**Q.** What about the KIDNEY_R (6 h) of the same compound?
**A.** 1 g

**Q.** What about the KIDNEY_TOTAL (6 h) of the same compound?
**A.** 1.9 g

**Q.** And the LIVER (6 h)?
**A.** 8.9 g

**Q.** What about the ALP (6 h) of the same compound?
**A.** 1394.4 IU/L

**Q.** What about the ALT (6 h) of the same compound?
**A.** 39.8 IU/L

**Q.** What about the AST (6 h) of the same compound?
**A.** 73.2 IU/L

**Q.** And the BUN (6 h)?
**A.** 8.6 mg/dL

**Q.** And the CRE (6 h)?
**A.** 0.2 mg/dL

**Q.** What about the DBIL (6 h) of the same compound?
**A.** 0.004 mg/dL

**Q.** What about the GLC (6 h) of the same compound?
**A.** 170.2 mg/dL

**Q.** And the K (6 h)?
**A.** 4 meq/L

**Q.** What about the LDH (6 h) of the same compound?
**A.** 52.4 IU/L

**Q.** And the Na (6 h)?
**A.** 142.6 meq/L

**Q.** And the PL (6 h)?
**A.** 136.4 mg/dL

**Q.** And the RALB (6 h)?
**A.** 2.5 g/dL

**Q.** And the TBIL (6 h)?
**A.** 0.038 mg/dL

**Q.** What about the TC (6 h) of the same compound?
**A.** 86.2 mg/dL

**Q.** What about the TG (6 h) of the same compound?
**A.** 41.8 mg/dL

**Q.** And the TP (6 h)?
**A.** 5.4 g/dL

**Q.** What about the gamma-GTP (6 h) of the same compound?
**A.** 1.2 IU/L

**Q.** And the TERMINAL_BW (9 h)?
**A.** 217.8 g

**Q.** And the APTT (9 h)?
**A.** 16.8 s

**Q.** What about the Bas (9 h) of the same compound?
**A.** 0%

**Q.** And the Eos (9 h)?
**A.** 0.8%

**Q.** What about the Fbg (9 h) of the same compound?
**A.** 288 mg/dL

**Q.** What about the Hb (9 h) of the same compound?
**A.** 13.4 g/dL

**Q.** What about the Ht (9 h) of the same compound?
**A.** 39.5%

**Q.** And the Lym (9 h)?
**A.** 80.6%

**Q.** What about the MCH (9 h) of the same compound?
**A.** 21.7 pg

**Q.** What about the MCHC (9 h) of the same compound?
**A.** 33.9%

**Q.** And the MCV (9 h)?
**A.** 64 fL

**Q.** What about the Mono (9 h) of the same compound?
**A.** 2.4%

**Q.** And the Neu (9 h)?
**A.** 15.4%

**Q.** And the PT (9 h)?
**A.** 13.5 s

**Q.** And the RBC (9 h)?
**A.** 617.2 x10_4/ul

**Q.** What about the Ret (9 h) of the same compound?
**A.** 7.6%

**Q.** What about the WBC (9 h) of the same compound?
**A.** 96.4 x10_2/uL

**Q.** And the KIDNEY_L (9 h)?
**A.** 0.9 g

**Q.** What about the KIDNEY_R (9 h) of the same compound?
**A.** 0.9 g

**Q.** And the KIDNEY_TOTAL (9 h)?
**A.** 1.8 g

**Q.** And the LIVER (9 h)?
**A.** 8.8 g

**Q.** And the ALP (9 h)?
**A.** 1362.6 IU/L

**Q.** What about the ALT (9 h) of the same compound?
**A.** 39.4 IU/L

**Q.** And the AST (9 h)?
**A.** 72.8 IU/L

**Q.** And the BUN (9 h)?
**A.** 10.2 mg/dL

**Q.** And the CRE (9 h)?
**A.** 0.2 mg/dL

**Q.** And the DBIL (9 h)?
**A.** 0.01 mg/dL

**Q.** And the GLC (9 h)?
**A.** 175.6 mg/dL

**Q.** And the K (9 h)?
**A.** 3.8 meq/L

**Q.** What about the LDH (9 h) of the same compound?
**A.** 49.8 IU/L

**Q.** And the Na (9 h)?
**A.** 143 meq/L

**Q.** What about the PL (9 h) of the same compound?
**A.** 133 mg/dL

**Q.** And the RALB (9 h)?
**A.** 2.6 g/dL

**Q.** What about the TBIL (9 h) of the same compound?
**A.** 0.046 mg/dL

**Q.** And the TC (9 h)?
**A.** 75.8 mg/dL

**Q.** And the TG (9 h)?
**A.** 67.6 mg/dL

**Q.** And the TP (9 h)?
**A.** 5.5 g/dL

**Q.** What about the gamma-GTP (9 h) of the same compound?
**A.** 1.2 IU/L

**Q.** What about the TERMINAL_BW (24 h) of the same compound?
**A.** 220.3 g

**Q.** And the APTT (24 h)?
**A.** 16.3 s

**Q.** What about the Bas (24 h) of the same compound?
**A.** 0%

**Q.** What about the Eos (24 h) of the same compound?
**A.** 1%

**Q.** What about the Fbg (24 h) of the same compound?
**A.** 294.8 mg/dL

**Q.** And the Hb (24 h)?
**A.** 13 g/dL

**Q.** What about the Ht (24 h) of the same compound?
**A.** 38%

**Q.** And the Lym (24 h)?
**A.** 78.2%

**Q.** And the MCH (24 h)?
**A.** 21.5 pg

**Q.** What about the MCHC (24 h) of the same compound?
**A.** 34.1%

**Q.** And the MCV (24 h)?
**A.** 63.1 fL

**Q.** And the Mono (24 h)?
**A.** 2.6%

**Q.** What about the Neu (24 h) of the same compound?
**A.** 17.4%

**Q.** And the PT (24 h)?
**A.** 12.8 s

**Q.** And the Plat (24 h)?
**A.** 119 x10_4/uL

**Q.** And the RBC (24 h)?
**A.** 603.2 x10_4/ul

**Q.** What about the Ret (24 h) of the same compound?
**A.** 7.9%

**Q.** What about the WBC (24 h) of the same compound?
**A.** 78.3 x10_2/uL

**Q.** What about the KIDNEY_L (24 h) of the same compound?
**A.** 0.9 g

**Q.** And the KIDNEY_R (24 h)?
**A.** 0.9 g

**Q.** What about the KIDNEY_TOTAL (24 h) of the same compound?
**A.** 1.9 g

**Q.** And the LIVER (24 h)?
**A.** 10.2 g

**Q.** What about the ALP (24 h) of the same compound?
**A.** 1641.6 IU/L

**Q.** And the ALT (24 h)?
**A.** 49.8 IU/L

**Q.** What about the AST (24 h) of the same compound?
**A.** 75.6 IU/L

**Q.** And the BUN (24 h)?
**A.** 15.8 mg/dL

**Q.** And the CRE (24 h)?
**A.** 0.2 mg/dL

**Q.** And the DBIL (24 h)?
**A.** 0.012 mg/dL

**Q.** What about the GLC (24 h) of the same compound?
**A.** 182.2 mg/dL

**Q.** And the K (24 h)?
**A.** 4.4 meq/L

**Q.** What about the LDH (24 h) of the same compound?
**A.** 59 IU/L

**Q.** What about the Na (24 h) of the same compound?
**A.** 141.8 meq/L

**Q.** And the PL (24 h)?
**A.** 150.8 mg/dL

**Q.** And the RALB (24 h)?
**A.** 2.7 g/dL

**Q.** And the TBIL (24 h)?
**A.** 0.03 mg/dL

**Q.** And the TC (24 h)?
**A.** 88.4 mg/dL

**Q.** What about the TG (24 h) of the same compound?
**A.** 82 mg/dL

**Q.** And the TP (24 h)?
**A.** 5.7 g/dL

**Q.** What about the gamma-GTP (24 h) of the same compound?
**A.** 1.2 IU/L
